Data set [1] concerns isolated guinea pig trachea. Briefly: Peripheral antihistaminic properties: inhibition of histamine-induced contraction of isolated guinea pig trachea. Particulars: competitive inhibition; mean ± standard deviation; histamine-contracted guinea pig trachea. The procedure: Tracheas of Dunkin-Hartley guinea pigs of both sexes (weight: 250-500 g) are excised and cut into four fragments of three segments of cartilage each. These fragments are immersed in a Krebs-Heinseleit solution at 37° C. containing 10^−7 mole/l of atropine and 10^−5 mole/l of indomethacin and are stretched with a weight of 1 g. The solution is aerated with a current of oxygen containing 5% carbon dioxide. Each change in tension, is recorded with an isometric force indicator K 30 (from Hugo Sachs Elektronik) coupled to an amplifier and a Sanborn 7700 recorder (from Hewlett Packard). The preparation (i.e. trachea fragment) so obtained is allowed to stabilize for one hour during which the base line for the tension is readjusted if necessary.
After washing and stabilization, a cumulative curve showing the effects of histamine, as a function of its concentration (10^−6, 10^−5 and 10^−4 mole/l) is plotted as a control.
For the same preparation, four further cumulative curves showing the effects of histamine as a function of its concentration are then recorded at four increasing concentrations of each compound to be tested.
The compounds to be tested are incorporated in the medium five minutes before the histamine. Between each measurement, the preparations are washed at least four times with an interval of five minutes between each washing. Each compound is tested on at least 6 trachea fragments. When the last curve is plotted, additional concentrations of 3.2×10^−4 and 10^−3 mole/l of histamine are added in order to determine whether the antagonism is competitive or not.

The subject of data set [2] is mice. Briefly: Toxicity: lethal dose in mice after intraperitoneal injection. The format is in vivo. Particulars: dose causing death in 2 out of 3 mice.
Data set [3] concerns the target T1, rat cortex histamine H1 receptor (Rattus norvegicus, UniProt P31390).
T1 construct: the samples containing 0.5 mg of cortex membrane protein; from tissue; host or cells: cerebral cortex membranes of male Sprague-Dawley rats
Briefly: Affinity towards the histamine H1 receptor ([3H]mepyramine competitive binding). The following applies: cologarithm of Ki, mean ± deviation (n=2); [3H]mepyramine 4.5×10^−9 mole/l, rat cortex membranes. The procedure: Cerebral cortexes from male Sprague-Dawley rats are homogenized in 2 ml per cortex of a 20 mM Tris-HCl buffer (pH 7.4) containing 250 mM sucrose. The homogenates are centrifuged at 30,000 g for 30 minutes at 4° C. and the centrifugation pellets are resuspended in the same fresh buffer and preserved in liquid nitrogen. […] The bound [^3H]mepyramine is separated from the free radioligand by rapid filtration of the sample through a Whatman GF/C filter, previously impregnated for at least 2 hours with a 0.1% solution of polyethyleneimine, in order to reduce the possibility of non-specific binding of the radioligand with other proteins. […] The radioactivity thereof is then measured using a β particle Tri-carb 1090 scintillation counter (Camberra-Packard, Belgium). Non-specific binding has been estimated in the presence of a 10 μM aqueous solution of cetirizine and represents 30% of the total binding. […] DE LEAN et al., Mol. Pharmacol., 21 (1982), 5-16) and their inhibition constants (Ki) are calculated by means of the CHENG and PRUSOFF equation (Y. C. CHENG and W. H. PRUSOFF, Biochem. Pharmacol., 22 (1973), 3099-3108). Table III below gives the values of pKi (cologarithm of Ki) calculated from Ki (mean value±deviation with respect to the mean (n=2)), for the compounds tested.

SMILES strings stand for the structures. Counter-ions that a name gives are not always drawn.

T1 sequence (P31390 whole entry): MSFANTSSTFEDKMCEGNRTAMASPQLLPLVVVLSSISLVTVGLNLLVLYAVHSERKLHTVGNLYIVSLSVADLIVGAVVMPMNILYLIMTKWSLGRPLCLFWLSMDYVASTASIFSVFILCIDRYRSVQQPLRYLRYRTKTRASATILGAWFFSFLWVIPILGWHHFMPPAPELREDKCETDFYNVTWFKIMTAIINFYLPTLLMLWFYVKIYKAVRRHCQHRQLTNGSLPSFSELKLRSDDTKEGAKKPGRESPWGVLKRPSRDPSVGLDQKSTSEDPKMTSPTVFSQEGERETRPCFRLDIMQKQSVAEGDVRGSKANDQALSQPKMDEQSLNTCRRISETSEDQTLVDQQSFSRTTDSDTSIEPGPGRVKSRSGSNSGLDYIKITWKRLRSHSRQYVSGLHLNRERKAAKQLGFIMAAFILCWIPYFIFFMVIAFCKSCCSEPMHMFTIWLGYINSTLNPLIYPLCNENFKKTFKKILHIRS

The term pA2 denotes the negative logarithm of the molar antagonist concentration that doubles the agonist concentration needed for the same response. The low end stands for a weaker antagonist, the high end for a more potent antagonist. By Ki is commonly meant the equilibrium dissociation constant of an inhibitor or competing ligand from its target. The low end stands for higher affinity, the high end for lower affinity. In data set [1], `OCCOCCOCCN1CCN(C(c2ccccc2)c2ccc(Cl)cc2)CC1` (single isomer, unassigned) [I, levorotatory dihydrochloride of 2-[2-[2-[4-[(4-chlorophenyl)phenylmethyl]-1-piperazinyl]ethoxy]ethoxy]ethanol] showed a pA2 of 6.5 ± 0.4. The same compound yielded a Lethal dose in data set [2] of 0.0001 mol/kg. This compound also had a Ki in data set [3] of 79.4 nM.
For `OCCOCCN1CCN(C(c2ccccc2)c2ccc(Cl)cc2)CC1` (single isomer, unassigned) [G, levorotatory dihydrochloride of 2-[2-[4-[(4-chlorophenyl)phenylmethyl]-1-piperazinyl]ethoxy]ethanol] the same measures were 6.5 ± 0.3, 0.0006 mol/kg and 25.1 nM.

These data come from US6436942B1, “Enantiomers of 1[(4-chloro-phenyl) phenylmethyl]-4-[(4-methylphenyl) sulfony]piperazine” (UCB, S.A., priority 1993, dated 2002).
